Here are results for twelve molecules from US20080207705A1, “Heteroaryl-Imidazole Derivatives as Cannabinoid CB1 Receptor Antagonists” (Green Cross Corporation, priority 2007, published 2008).

The target in the experiment is T1, rat CB-1 receptor (Rattus norvegicus, UniProt P20272).
T1 construct: The tissue obtained from the brain of SD rats was homogenized; from tissue; host or cells: brain of SD rats (membrane pellet of homogenate)
T1 sequence (P20272 whole entry): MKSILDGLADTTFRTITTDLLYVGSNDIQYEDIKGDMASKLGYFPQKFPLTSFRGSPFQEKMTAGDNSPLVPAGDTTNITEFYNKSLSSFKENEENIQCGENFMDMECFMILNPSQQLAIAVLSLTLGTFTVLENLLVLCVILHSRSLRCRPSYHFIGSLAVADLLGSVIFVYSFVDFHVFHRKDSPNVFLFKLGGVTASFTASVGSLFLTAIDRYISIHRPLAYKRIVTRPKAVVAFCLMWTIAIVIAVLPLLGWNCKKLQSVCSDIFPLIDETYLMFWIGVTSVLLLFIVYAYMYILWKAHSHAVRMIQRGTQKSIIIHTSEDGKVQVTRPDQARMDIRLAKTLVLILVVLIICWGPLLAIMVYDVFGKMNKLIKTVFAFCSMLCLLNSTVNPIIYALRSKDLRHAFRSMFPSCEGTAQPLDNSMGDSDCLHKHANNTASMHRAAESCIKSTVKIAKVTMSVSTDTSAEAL
Put plainly: rat CB-1 receptor binding protocol with [3H]CP-55940. Conditions: [3H]CP-55940, brain tissue of SD rats, 30 °C for 60 min; read-out: IC50.
In the case of `CCCc1c(-c2nnc(C3CCC3)s2)nc(-c2ccc(Cl)cc2Cl)n1-c1ccc(Br)cc1` [Example 122, 2-(1-(4-Bromophenyl)-2-(2,4-dichlorophenyl)-5-propyl-1H-imidazol-4-yl)-5-cyclobutyl-1,3,4-thiadiazole], the IC50 – broadly, the point on the concentration scale where inhibition reaches its midpoint – is 37.4 nM. The value for `FC(F)(F)C1(c2nnc(-c3nc(-c4ccccc4Cl)n(-c4ccc(Br)cc4)c3Cn3cncn3)s2)CC1` [Example 169, 2-(5-((1H-1,2,4-Triazol-1-yl)methyl)-1-(4-bromophenyl)-2-(2-chlorophenyl)-1H-imidazol-4-yl)-5-(1-(trifluoromethyl)cyclopropyl)-1,3,4-thiadiazole] was 4.73 nM. Under `CC(C)(C)c1nnc(-c2nc(-c3ccccc3Cl)n(-c3ccc(Br)cc3)c2Cn2cncn2)o1` [Example 78, 2-(5-((1H-1,2,4-Triazol-1-yl)methyl)-1-(4-bromophenyl)-2-(2-chlorophenyl)-1H-imidazol-4-yl)-5-tert-butyl-1,3,4-oxadiazole] stands 10.3 nM. With `CCCc1c(-c2nnc(C3(c4ccc(Cl)cc4)CC3)s2)nc(-c2ccc(Cl)cc2Cl)n1-c1ccc(Br)cc1` [Example 123, 2-(1-(4-Bromophenyl)-2-(2,4-dichlorophenyl)-5-propyl-1H-imidazol-4-yl)-5-(1-(4-chlorophenyl)cyclopropyl)-1,3,4-thiadiazole], the IC50 came to 4.48 nM. For the molecule `CCCc1c(-c2nnc(C(C)(C)C)o2)nc(-c2ccc(Cl)cc2Cl)n1-c1ccc(Br)cc1` [Example 29, 2-(1-(4-Bromophenyl)-2-(2,4-dichlorophenyl)-5-propyl-1H-imidazol-4-yl)-5-tert-butyl-1,3,4-oxadiazole], the concentration for half-maximal inhibition (IC50) was 71.5 nM. Under `CCc1c(-c2nnc(C3CCCC3)o2)nc(-c2ccc(Cl)cc2Cl)n1-c1ccc(Cl)cc1` [Example 13, 2-(1-(4-Chlorophenyl)-2-(2,4-dichlorophenyl)-5-ethyl-1H-imidazol-4-yl)-5-cyclopentyl-1,3,4-oxadiazole] stands 25.8 nM; under `Cc1c(-c2nnc(C3(C(F)(F)F)CC3)s2)nc(-c2ccccc2Cl)n1-c1ccc(Br)cc1` [Example 142, 2-(1-(4-Bromophenyl)-2-(2-chlorophenyl)-5-methyl-1H-imidazol-4-yl)-5-(1-(trifluoromethyl)cyclopropyl)-1,3,4-thiadiazole], 12.3 nM. The value for `CCCc1c(-c2nnc(C3(c4ccc(Cl)cc4)CC3)o2)nc(-c2ccc(Cl)cc2Cl)n1-c1ccc(Cl)cc1` [Example 37, 2-(1-(4-Chlorophenyl)-2-(2,4-dichlorophenyl)-5-propyl-1H-imidazol-4-yl)-5-(1-(4-chlorophenyl)cyclopropyl)-1,3,4-oxadiazole] was 15.1 nM; that for `CCC(C)c1nnc(-c2nc(-c3ccc(Cl)cc3Cl)n(-c3ccc(Cl)cc3)c2C)o1` (stereo not drawn) [Example 8, 2-sec-Butyl-5-(1-(4-chlorophenyl)-2-(2,4-dichlorophenyl)-5-methyl-1H-imidazol-4-yl)-1,3,4-oxadiazole] was 39.4 nM; that for `Clc1ccc(C2(c3nnc(-c4nc(-c5ccc(Cl)cc5Cl)n(-c5ccc(Br)cc5)c4Cn4cncn4)s3)CC2)cc1` [Example 167, 2-(5-((1H-1,2,4-Triazol-1-yl)methyl)-1-(4-bromophenyl)-2-(2,4-dichlorophenyl)-1H-imidazol-4-yl)-5-(1-(4-chlorophenyl)cyclopropyl)-1,3,4-thiadiazole] was 3.91 nM. `CCCCc1cnc(-c2nc(-c3ccc(Cl)cc3Cl)n(-c3ccc(Cl)cc3)c2C)o1` [Example 182, 5-Butyl-2-(1-(4-chlorophenyl)-2-(2,4-dichlorophenyl)-5-methyl-1H-imidazol-4-yl)oxazole]: the 50% inhibitory concentration (IC50) was found to be 11.6 nM. Under `CCCc1c(-c2nnc(C3(c4ccc(Cl)cc4)CCC3)s2)nc(-c2ccc(Cl)cc2Cl)n1-c1ccc(Br)cc1` [Example 124, 2-(1-(4-Bromophenyl)-2-(2,4-dichlorophenyl)-5-propyl-1H-imidazol-4-yl)-5-(1-(4-chlorophenyl)cyclobutyl)-1,3,4-thiadiazole] stands 1.79 nM.
